In brackets after ≈: the same amount, converted by molar mass. One block for each compound: values may come before it.
Tests used:
Pseudomonas aeruginosa [1] = experiment: Antibacterial activity against Pseudomonas aeruginosa ATCC 27853 incubated for 24 hrs by CLSI-based macrobroth dilution method; assay type: functional
Plasmodium falciparum [2] = experiment: Antiplasmodial activity against chloroquine-resistant Plasmodium falciparum Dd2 infected in human erythrocytes incubated for 72 hrs by SYBR green staining based fluorescence assay; assay type: functional, organism-based; conditions: Dd2, 72 h
Plasmodium falciparum [3] = experiment: Antiplasmodial activity against chloroquine-resistant Plasmodium falciparum K1 infected in human erythrocytes incubated for 72 hrs by SYBR green staining based fluorescence assay; assay type: functional, organism-based; conditions: K1, 72 h
Escherichia coli [4] = experiment: Antibacterial activity against Escherichia coli; assay type: functional
Human betaherpesvirus 5 = experiment: Antiviral activity against GFP-transfected Human cytomegalovirus AD169 infected in human HFF cells measured after 7 days by GFP fluorometry; assay type: functional, cell-based; conditions: Human betaherpesvirus 5, AD169, HFF, 168 h
Klebsiella aerogenes = experiment: Antibacterial activity against Klebsiella aerogenes incubated for 18 hrs by agar dilution method; assay type: functional
Morganella morganii [5] = experiment: Antibacterial activity against Proteus morganii NCTC235 incubated for 18 hrs by agar dilution method; assay type: functional
Proteus mirabilis = experiment: Antibacterial activity against Proteus mirabilis 431 incubated for 18 hrs by agar dilution method; assay type: functional
Staphylococcus aureus [6] = experiment: Antibacterial activity against Staphylococcus aureus incubated for 18 hrs by agar dilution method; assay type: functional
Hafnia alvei = experiment: Antibacterial activity against Enterobacter hafniae incubated for 18 hrs by agar dilution method; assay type: functional
Citrobacter freundii = experiment: Antibacterial activity against Citrobacter freundii incubated for 18 hrs by agar dilution method; assay type: functional
Enterobacter cloacae = experiment: Antibacterial activity against Enterobacter cloacae incubated for 18 hrs by agar dilution method; assay type: functional
Morganella morganii [7] = experiment: Antibacterial activity against Proteus morganii incubated for 18 hrs by agar dilution method; assay type: functional
Providencia rettgeri = experiment: Antibacterial activity against Proteus rettgeri incubated for 18 hrs by agar dilution method; assay type: functional
Escherichia coli [8] = experiment: Antibacterial activity against Escherichia coli incubated for 18 hrs by agar dilution method; assay type: functional
Staphylococcus aureus [9] = experiment: Antibacterial activity against Staphylococcus aureus; assay type: functional
A549 = experiment: Growth inhibition of human A549 cells incubated for 72 hrs by MTT assay; assay type: functional, cell-based; conditions: A549, 72 h
MDA-MB-231 = experiment: Growth inhibition of human MDA-MBA-231 cells incubated for 72 hrs by MTT assay; assay type: functional, cell-based; conditions: MDA-MB-231, 72 h
HT-29 = experiment: Growth inhibition of human HT-29 cells incubated for 72 hrs by MTT assay; assay type: functional, cell-based; conditions: HT-29, 72 h
Plasmodium falciparum [10] = experiment: Antiplasmodial activity against […] Plasmodium falciparum 3D7 infected in human erythrocytes incubated for 72 hrs by SYBR green staining based fluorescence assay; assay type: functional, organism-based; conditions: 3D7, 72 h
Pseudomonas aeruginosa [11] = experiment: Antibacterial activity against Pseudomonas aeruginosa ATCC 91433; assay type: functional
Plasmodium falciparum [12] = experiment: Antiplasmodial activity against Plasmodium falciparum W2; assay type: functional, organism-based
MCF7 = experiment: Cytotoxicity against human MCF7 by microculture tetrazolium assay; assay type: functional, cell-based

- MIC (Pseudomonas aeruginosa [1]): 4 µg/mL (≈ 4.08 µM)
SMILES: NC[C@H]1O[C@H](O[C@H]2[C@H](OCCCCCCCCCCCCN3CCN(c4cc5c(cc4F)c(=O)c(C(=O)O)cn5C4CC4)CC3)[C@@H](O[C@@H]3O[C@H](CO)[C@@H](O)[C@H](N)[C@H]3O)[C@H](N)C[C@@H]2N)[C@H](N)[C@@H](O)[C@@H]1O

SMILES: CCN(CC)CCCC(C)Nc1ccnc2cc(Cl)ccc12 (stereo not given) [CHLOROQUINE]
- EC50 (Plasmodium falciparum [2]): 165 nM
- EC50 (Plasmodium falciparum [3]): 303 nM

SMILES: C[C@H]1[C@H](OC(=O)CCC(=O)NCCNc2ccnc3cc(Cl)ccc23)O[C@@H]2O[C@@]3(C)CC[C@H]4[C@H](C)CC[C@@H]1[C@@]24OO3
- EC50 (Plasmodium falciparum [2]): 1 nM
- EC50 (Plasmodium falciparum [3]): 0.78 nM

SMILES: N[C@@H](CCl)C(=O)N[C@@H](CCl)C(=O)OCC1=C(C(=O)O)N2C(=O)[C@@H](NC(=O)Cc3cccs3)[C@H]2SC1
- MIC (Escherichia coli [4]): 7.05 µg/mL (≈ 12.5 µM)

SMILES: C[C@H]1[C@H](OC(=O)CCC(=O)OCCCNc2ncnc3c(C#N)c(-c4ccc(C(F)(F)F)cc4)cc(-c4ccc(C(F)(F)F)cc4)c23)O[C@@H]2O[C@]3(C)CC[C@H]4[C@H](C)CC[C@@H]1[C@@]24OO3
- EC50 (Human betaherpesvirus 5): 100 nM

- MIC (Klebsiella aerogenes): 0.5 µg/mL (≈ 1.06 µM)
- MIC (Morganella morganii [5]): 0.5 µg/mL (≈ 1.06 µM)
- MIC (Proteus mirabilis): 0.5 µg/mL (≈ 1.06 µM)
- MIC (Staphylococcus aureus [6]): 0.5 µg/mL (≈ 1.06 µM)
- MIC (Hafnia alvei): 0.5 µg/mL (≈ 1.06 µM)
- MIC (Citrobacter freundii): 0.5 µg/mL (≈ 1.06 µM)
- MIC (Enterobacter cloacae): 0.5 µg/mL (≈ 1.06 µM)
- MIC (Morganella morganii [7]): 0.5 µg/mL (≈ 1.06 µM)
- MIC (Providencia rettgeri): 0.5 µg/mL (≈ 1.06 µM)
- MIC (Escherichia coli [8]): 0.5 µg/mL (≈ 1.06 µM)
SMILES: O=C(O)C1=C(CSc2cccc[n+]2[O-])CS[C@@H]2[C@H](NC(=O)[C@H](O)c3ccccc3)C(=O)N12

- MIC (Staphylococcus aureus [9]): 0.5 µg/mL (≈ 0.789 µM)
- MIC (Escherichia coli [4]): 1 µg/mL (≈ 1.58 µM)
SMILES: COc1cc(Cc2cnc(N)nc2N)cc(OC)c1OCCN1CCN(c2cc3c(cc2F)c(=O)c(C(=O)O)cn3C2CC2)CC1

SMILES: C[C@H]1[C@@H](OCc2cn(-c3ccnc4cc(Cl)ccc34)nn2)O[C@@H]2O[C@@]3(C)CC[C@H]4[C@H](C)CC[C@@H]1[C@@]24OO3
- EC50 (Plasmodium falciparum [2]): 5.9 nM
- EC50 (Plasmodium falciparum [3]): 4.3 nM

SMILES: C[C@H]1[C@@H](OCCNC(=Nc2cc(C(F)(F)F)ccc2Cl)NCCO[C@H]2O[C@@H]3O[C@]4(C)CC[C@H]5[C@H](C)CC[C@@H]([C@H]2C)[C@@]35OO4)O[C@@H]2O[C@]3(C)CC[C@H]4[C@H](C)CC[C@@H]1[C@@]24OO3
- EC50 (A549): 240 nM
- EC50 (MDA-MB-231): 1420 nM
- EC50 (HT-29): 1400 nM

SMILES: C[C@H]1[C@H](OC(=O)CCC(=O)OCCOC(=O)CC(=O)OCCOC(=O)CCC(=O)O[C@@H]2O[C@@H]3O[C@@]4(C)CC[C@H]5[C@H](C)CC[C@@H]([C@H]2C)[C@@]35OO4)O[C@@H]2O[C@@]3(C)CC[C@H]4[C@H](C)CC[C@@H]1[C@@]24OO3
- EC50 (Plasmodium falciparum [10]): 1.4 nM

- MIC (Pseudomonas aeruginosa [11]): 8 µg/mL (≈ 7.85 µM)
SMILES: NCCCCC(N)C(=O)N(CCCCCCCCCCCCO[C@@H]1[C@@H](O[C@@H]2O[C@H](CO)[C@@H](O)[C@H](N)[C@H]2O)[C@H](N)C[C@H](N)[C@H]1O[C@H]1O[C@H](CN)[C@@H](O)[C@H](O)[C@H]1N)Cc1c2ccccc2c(Cl)c2ccccc12 (stereo not given in full)

- IC50 (Plasmodium falciparum [12]): 1410 nM
SMILES: COc1cc(NCCCCn2c(-c3ccc(F)cc3)c(-c3ccccc3)c(C(=O)Nc3ccccc3)c2C(C)C)c2ncccc2c1

SMILES: C[C@H]1[C@@H](CCS(=O)(=O)CC[C@H]2O[C@@H]3O[C@]4(C)CC[C@H]5[C@H](C)CC[C@@H]([C@H]2C)[C@@]35OO4)O[C@@H]2O[C@]3(C)CC[C@H]4[C@H](C)CC[C@@H]1[C@@]24OO3
- EC50 (MCF7): 25 nM

SMILES: C[C@H]1[C@H](OC(=O)CCC(=O)OCc2cn(-c3ccnc4cc(Cl)ccc34)nn2)O[C@@H]2O[C@@]3(C)CC[C@H]4[C@H](C)CC[C@@H]1[C@@]24OO3
- EC50 (Plasmodium falciparum [2]): 4.2 nM
- EC50 (Plasmodium falciparum [3]): 1.8 nM

Reference: ChEMBL document CHEMBL4699468, “Structural hybridization as a facile approach to new drug candidates” (Bioorg Med Chem Lett, 2020)
